The source of these data is US6159940A, “Method for modulating hemopoiesis” (Immunotech Developments Inc., priority 1999, dated 2000).

One assay has as its system CFU-S. Briefly: Spleen colony formation from RAMBS-treated bone marrow in lethally irradiated mice. The settings on record: RAMBS-treated bone marrow + preparation, lethally irradiated mice. The assay is classed as in vivo, (CBA×C57BL)F1 female mice. From the text: (CBA×C57BL)F1 female mice (n=2500), 2-months old, weighing about 20 g, were used in the experiment.
As is known, there is a close relationship between T-cells and hemopoietic progenitors. It was shown that, along with colony-forming units of spleen (CFU-S), thymocytes participate in colony formation of spleens of irradiated mice by controlling proliferation of the hemopoietic progenitor cells. The fact was established in a test system, which allowed a selective removal of accessory T-cells from bone marrow with the help of rabbit antimouse brain antiserum (RAMBS) and their substitution with other factors. Aliquots (0.1 ml) of bone marrow suspension (2×10^7 cells), RAMBS, and medium 199 were mixed and incubated for 1 hour at 37° C. Then the cells were washed with centrifuging, resuspended and injected to lethally irradiated mice.
According to the aforesaid scheme, instead of thymocytes mice received the peptide, H-Ile-Glu-Trp-OH injections 30 minutes before the injections of RAMBS-treated bone marrow suspension.

Another assay concerns Thymoma EL-4 cells. The assay can be described thus: Thymoma EL-4 cells incubated with peptide and oxyurea, transplanted to mice: tumor growth and survival. The assay is classed as in vivo, C57B1 mice. Here is the method: The Thymoma EL-4 cells were extracted from the abdomen cavity of C57B1 mice at the 7th day after transplantation. The suspension was washed by centrifugation in the medium RPMI. Then the cells were resuspended in the growth medium (RPMI+10% of embryo serum+0.1% penicillin/streptomycin) and were split in culture flasks 5 ml each ([…] per flask). 2 mg of the preparation were added (20 μl) to each probe. After 18 hours of incubation (37 degrees Celsius CO2), OU was added to the half of probes (1 mg per 5 ml). Incubation was done for 1 more hour in the same conditions and then cells were washed out by centrifugation in the medium RPMI. The precipitated cells were resuspended in calculation 1 ml per 0.2 ml of RPMI medium and then transplanted to the mice C57B1 under the back skin.
The taking of the measurements of the size of the tumor was started after the knot became visible. The tumor was measured every day until it was impossible to measure. The survival ability of the mice was examined during 60 days after transplantation. Mice that survived after this period were considered to be cured. Each experimental group consisted of 6 animals.

The next assay has as its system CFU-S-8 and CFU-S-12. The assay can be described thus: Cytostatic (Cytosine-Arabinoside)-induced cytopenia: karyocytes, CFU-S-8, CFU-S-12 in bone marrow. The assay is classed as in vivo, mice. The note with it: donor bone marrow; CA 20 mg/kg i.p. once; N 10 μg/kg once daily, three injections. The procedure: Used as a cytostatic, Cytosine-Arabinoside (CA) was intraperitoneally injected to donor mice once in the dose of 20 mg/kg. The peptide was given according to the following scheme: 10 μg/kg once daily, three injections starting from the first hour after CA. Intact mice received H-Ile-Glu-Trp-OH in the same doses and according to the same schedule. On day 8 after the cytostatic injection, determined were karyocyte count in the donor bone marrow and the content of hemopoietic progenitors of different polipotencies: committed CFU-S-8 and CFU-S-12. CFU-8 are committed stem cells which later undergo differentiation. CFU-12 are the polypotent cells, from which stem cells can be recruited (i.e. they maintain the pool of stem cells). This is a slowly proliferating cell population, mainly in G phase. That is why it is important to evaluate the effect of a preparation on the pools of both committed (CFU-8) and polypotent (CFU- 12) cells. To this end, bone marrow was extracted from donor's femoral bones and injected to lethally irradiated recipients. After the cell injections, every test group was divided into 2 subgroups: some animals were killed on day 8, the other on day 12. Spleens were taken out and the colonies were counted. The tests were carried out on 105 mice.

Where [1] appears, read: 60 days after transplantation of treated EL-4 cells.

The structures appear in SMILES notation. Where a SMILES comes first, the peptide text is derived from it.

Regarding `N[C@@H](CCC(=O)O)C(=O)N[C@@H](Cc1c[nH]c2ccccc12)C(=O)O` [Thymogen, H-Glu-Trp-OH, reference compound] (H-Glu-Trp-OH), the “Average Colony Count” value in the assay with CFU-S was 2.9+/-0.3.
Take `NC(=O)NO` [OU, oxyurea, reference compound]: in the assay with Thymoma EL-4 cells (setting [1]), the “% of Survival” value stood at 0% and the “Number of Survived Mice From 6” value was 0/6. The “delay in the tumor growth” value in the assay on Thymoma EL-4 cells (intact tumor cells treated with OU (FIG. 3)) was around 12 days. Besides, the “increase in lifetime versus control” value in the assay with Thymoma EL-4 cells (mice with Thymoma EL-4) is given as 5 days.
As to `Nc1ccn([C@@H]2O[C@H](CO)[C@@H](O)[C@@H]2O)c(=O)n1` [CA, Cytosine-Arabinoside, reference compound], in the assay with CFU-S-8 and CFU-S-12, the “Day 8 COUNT CFU-S-8” value is 1270 ± 53, the “Day 8 COUNT CFU-S-12” value turned out to be 1244 ± 71 and the “Day 8 COUNT Karyocytes” value is 17.5 ± 0.8 × 10^6.
